Reference: patent US6242440A, “Synergistic compositions comprising an oxathiazine and a benzothiophene-2-carboxamide-S,S-dioxide” (Janssen Pharmaceutica N.V., priority 1997, dated 2001)

Assays:
Aureobasidium = test: wood stick test (Scots Pine); type: cell-based, Aureobasidium pullulans; conditions: read-out: measured (relative) activity %
Experimental: (§1) Oven-dried wood sticks (50×12×2 mm) of Scots Pine (Pinus sylvestris) were dipped during 3 hours in a methanol solution comprising a compound of formula (I), a compound of formula (II), or a combination of a compound of formula (I) and a compound of formula (II), and allowed to dry overnight in a sterile laminar air flow. In each Petri dish one stick was placed on culture medium, PDA PS (Potato Dextrose Agar containing 60 mg penicillin and 200 mg streptomycin), previously seeded with inoculum. Two drops of fungal or spore suspension were pipetted on the upper surface of the stick The Petri dishes were incubated at 22° C. and 70% relative humidity. The test was evaluated after sufficient growth of the fungus on the control sticks. The following score system was used:
(§2) 0: sticks free of fungal growth
(§3) 1: traces of growth on the stick
(§4) 2: slight growth (5 to 25% of the surface covered)
(§5) 3 : moderate growth (25 to 50% of the surface covered)
(§6) 4: vigorous to maximum growth (more tha 50% covered)
(§7) To calculate synergism results were converted to the next artificial activities:
(§8) Yhe expected activities E were calculated by using the so-called formula of Colby: (Colby, S. R. Weeds 1967, 15: 20-22), [formula]
(§9) wherein X and Y express the relative activities obtained for each of the active ingredients. A synergistic effect can be acknowledged if the found activity exceeds calculated activity.
(§10) The compound of formula (I) used in the experiment was 3-benzo[b]-thien-2-yl)-5,6-dihydro-1,4,2-oxathiazine 4-oxide, i.e. compound (1). The compound of formula (II) used in the experiment was N-cyclohexyl-benzothiophene-2-carboxamide-S,S-dioxide, i.e. compound (2).

Aspergillus niger = test: poison plate assay, mycelial growth and sporulation; type: cell-based
Experimental: (§11) The efficacy of the active ingredients against mycelial growth and sporulation of Aureobasidium pullulans, Aspergillus niger, Scierophoma entoxylina, Trichodenna viride, was determined in the poison plate assay. The required concentrations of the fungicide(s) were obtained by diluting the active ingredients (I), (II) or the combination of (I) and (II) in dimethyl sulfoxide (DMSO) at 800 times the final test concentration. The stock solutions in DMSO were pipetted into Petri-dishes. Malt extract agar (3%) was added aseptically and uniform distribution was obtained by shaking. Each plate was spot inoculated with a spore or mycelial suspension. After incubation at 22° C. and 70% relative humidity for a period long enough to allow complete growth of controls, diameters of colonies were measured. Relative activities were calculated by taking the absence of fungal growth (diameter 0 mm) as 100%. From the activity of the active ingredients alone, the expected activities E were calculated by using the so-called formula of Colby: (Colby, S. R. Weeds 1967, 15: 20-22), [formula]
as §9
(§12) Equal efficacy was observed whenever complete inhibition of fungal growth occurred by one of the active ingredients (I) or (II) alone. The compound of formula (I) used in the experiment was 3-benzo[b]-thien-2-yl)-5,6-dihydro-1,4,2-oxathiazine 4-oxide, i.e. compound (1). The compound of formula (II) used in the experiment was N-cyclohexyl-benzothiophene-2-carboxamide-S,S-dioxide, i.e. compound (2).

Trichoderma viride = test: as above; type: cell-based
Experimental: as §11, §9, §12

Sclerophoma entoxylina = test: as above; type: cell-based
Experimental: as §11, §9, §12

Aureobasidium pullulans = test: as above; type: cell-based
Experimental: as §11, §9, §12

Sclerophoma = test: wood stick test (Scots Pine); type: cell-based, Sclerophoma entoxylina
Experimental: as §1, §2, §3, §4, §5, §6, §7, §8, §9, §10

Aspergillus = test: wood stick test (Scots Pine); type: cell-based, Aspergillus niger
Experimental: as §1, §2, §3, §4, §5, §6, §7, §8, §9, §10

[O-][S+]1CCON=C1c1cc2ccccc2s1 (stereo not shown) [compound (1), 3-(benzo[b]thien-2-yl)-5,6-dihydro-1,4,2-oxathiazine, 4-oxide]
activity at 200 ppm (Aureobasidium; (1) 200 ppm): 0%
activity at 400 ppm (Aureobasidium; (1) 400 ppm): 50%
activity measured (Aspergillus niger; Exp 1, 5 days, (1) 0.62 mg/l): 5%
growth (Aspergillus niger; Exp 1, 5 days, (1) 0.62 mg/l): 42 mm
activity measured (Aspergillus niger; Exp 1, 5 days, (1) 1.25 mg/l): 14%
growth (Aspergillus niger; Exp 1, 5 days, (1) 1.25 mg/l): 38 mm
activity measured (Aspergillus niger; Exp 1, 5 days, (1) 2.50 mg/l): 39%
growth (Aspergillus niger; Exp 1, 5 days, (1) 2.50 mg/l): 27 mm
activity measured (Aspergillus niger; Exp 1, 5 days, (1) 5.00 mg/l): 100%
growth (Aspergillus niger; Exp 1, 5 days, (1) 5.00 mg/l): 0 mm
activity measured (Aspergillus niger; Exp 2, 7 days, (1) 1.25 mg/l): 16%
growth (Aspergillus niger; Exp 2, 7 days, (1) 1.25 mg/l): 38 mm
activity measured (Aspergillus niger; Exp 2, 7 days, (1) 2.50 mg/l): 44%
growth (Aspergillus niger; Exp 2, 7 days, (1) 2.50 mg/l): 25 mm
activity measured (Trichoderma viride; Exp 1, 5 days, (1) 0.62 mg/l): 0%
growth (Trichoderma viride; Exp 1, 5 days, (1) 0.62 mg/l): 49 mm
activity measured (Trichoderma viride; Exp 1, 5 days, (1) 1.25 mg/l): 0%
growth (Trichoderma viride; Exp 1, 5 days, (1) 1.25 mg/l): 49 mm
activity measured (Trichoderma viride; Exp 1, 5 days, (1) 2.50 mg/l): 2%
growth (Trichoderma viride; Exp 1, 5 days, (1) 2.50 mg/l): 48 mm
activity measured (Trichoderma viride; Exp 1, 5 days, (1) 5.00 mg/l): 29%
growth (Trichoderma viride; Exp 1, 5 days, (1) 5.00 mg/l): 35 mm
activity measured (Trichoderma viride; Exp 2, 7 days, (1) 1.25 mg/l): 12%
growth (Trichoderma viride; Exp 2, 7 days, (1) 1.25 mg/l): 43 mm
activity measured (Trichoderma viride; Exp 2, 7 days, (1) 2.50 mg/l): 29%
growth (Trichoderma viride; Exp 2, 7 days, (1) 2.50 mg/l): 35 mm
activity measured (Sclerophoma entoxylina; Exp 1, 5 days, (1) 0.62 mg/l): 2%
growth (Sclerophoma entoxylina; Exp 1, 5 days, (1) 0.62 mg/l): 42 mm
activity measured (Sclerophoma entoxylina; Exp 1, 5 days, (1) 1.25 mg/l): 14%
growth (Sclerophoma entoxylina; Exp 1, 5 days, (1) 1.25 mg/l): 37 mm
activity measured (Sclerophoma entoxylina; Exp 1, 5 days, (1) 2.50 mg/l): 37%
growth (Sclerophoma entoxylina; Exp 1, 5 days, (1) 2.50 mg/l): 27 mm
activity measured (Sclerophoma entoxylina; Exp 1, 5 days, (1) 5.00 mg/l): 84%
growth (Sclerophoma entoxylina; Exp 1, 5 days, (1) 5.00 mg/l): 7 mm
activity measured (Sclerophoma entoxylina; Exp 2, 7 days, (1) 1.25 mg/l): 4%
growth (Sclerophoma entoxylina; Exp 2, 7 days, (1) 1.25 mg/l): 47 mm
activity measured (Sclerophoma entoxylina; Exp 2, 7 days, (1) 2.50 mg/l): 18%
growth (Sclerophoma entoxylina; Exp 2, 7 days, (1) 2.50 mg/l): 40 mm
activity measured (Aureobasidium pullulans; Exp 1, 5 days, (1) 0.62 mg/l): 13%
growth (Aureobasidium pullulans; Exp 1, 5 days, (1) 0.62 mg/l): 33 mm
activity measured (Aureobasidium pullulans; Exp 1, 5 days, (1) 1.25 mg/l): 32%
growth (Aureobasidium pullulans; Exp 1, 5 days, (1) 1.25 mg/l): 26 mm
activity measured (Aureobasidium pullulans; Exp 1, 5 days, (1) 2.50 mg/l): 61%
growth (Aureobasidium pullulans; Exp 1, 5 days, (1) 2.50 mg/l): 15 mm
activity measured (Aureobasidium pullulans; Exp 1, 5 days, (1) 5.00 mg/l): 87%
growth (Aureobasidium pullulans; Exp 1, 5 days, (1) 5.00 mg/l): 5 mm
activity measured (Aureobasidium pullulans; Exp 2, 7 days, (1) 1.25 mg/l): 8%
growth (Aureobasidium pullulans; Exp 2, 7 days, (1) 1.25 mg/l): 44 mm
activity measured (Aureobasidium pullulans; Exp 2, 7 days, (1) 2.50 mg/l): 21%
growth (Aureobasidium pullulans; Exp 2, 7 days, (1) 2.50 mg/l): 38 mm
% overgrown of the sticks (Sclerophoma; (1) 200 ppm): 100%
stick test scores (Sclerophoma; (1) 200 ppm): 4 (vigorous to maximum growth (more tha 50% covered))
% overgrown of the sticks (Sclerophoma; (1) 400 ppm): 50%
stick test scores (Sclerophoma; (1) 400 ppm): 3 (moderate growth (25 to 50% of the surface covered))
activity at 200 ppm (Sclerophoma; Sclerophoma entoxylina, (1) 200 ppm, read-out: measured (relative) activity %): 0%
activity at 400 ppm (Sclerophoma; Sclerophoma entoxylina, (1) 400 ppm, read-out: measured (relative) activity %): 50%
% overgrown of the sticks (Aspergillus; (1) 200 ppm): 100%
stick test scores (Aspergillus; (1) 200 ppm): 4 (vigorous to maximum growth (more tha 50% covered))
% overgrown of the sticks (Aspergillus; (1) 400 ppm): 50%
stick test scores (Aspergillus; (1) 400 ppm): 3 (moderate growth (25 to 50% of the surface covered))
activity at 400 ppm (Aspergillus; Aspergillus, (1) 400 ppm, read-out: measured (relative) activity %): 50%
